The text below walks through data of patent US7901667B2, “Bridgehead labelled compounds and methods of using the same” (Mallinckrodt Inc., priority 2005, dated 2011).

For data set [1] the following is noted: at 60 min, relative to whole brain average; cited from earlier work.
For data set [2] the following is noted: X = Tosylate, relative to tert-Butyl, cited from earlier work; for Relative rate of hydrolysis, calc.: calculated; for Relative rate of hydrolysis, exp.: experimental.
Data set [3] concerns the target T1, human recombinant human 5-HT1A receptor subtype (Homo sapiens, UniProt P08908).
T1 construct: purchased Perkin Elmer (Boston, USA); host or cells: HEK-293 EBNA cells (membrane suspension)
T1 sequence (P08908 1-422): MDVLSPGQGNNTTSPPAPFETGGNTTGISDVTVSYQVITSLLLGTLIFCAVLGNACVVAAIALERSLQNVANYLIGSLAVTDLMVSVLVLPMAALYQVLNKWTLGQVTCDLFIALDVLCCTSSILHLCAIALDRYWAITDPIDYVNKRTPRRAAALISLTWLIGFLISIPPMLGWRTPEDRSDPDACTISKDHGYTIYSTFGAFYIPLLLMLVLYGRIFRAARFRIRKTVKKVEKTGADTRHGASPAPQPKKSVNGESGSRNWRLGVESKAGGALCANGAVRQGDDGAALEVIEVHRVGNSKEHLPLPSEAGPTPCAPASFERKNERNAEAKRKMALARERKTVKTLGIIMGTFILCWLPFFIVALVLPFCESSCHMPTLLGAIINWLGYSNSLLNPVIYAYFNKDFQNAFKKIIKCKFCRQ
Kind of data set: competitive binding assay with [^3H]8-OH-DPAT on membranes of HEK-293 EBNA-cells. As to the method: A membrane suspension from HEK-293 EBNA-cells expressing the human recombinant human 5-HT1A receptor subtype, was obtained from Perkin Elmer (Boston, USA). The protein concentration of the original suspension was 36.8 mg/mL.
Aliquots of these diluted membranes (factor 1:20) were incubated on microplates for 120 min at 37° C. in the dark. […] The incubation buffer contained 50 mM TRIS-HCl and 5 mM MgSO4 (pH to 7.4 at 25° C.). […] Non-specific binding was determined using 5-hydroxytryptamine (5-HT, serotonin) as a competitor in a concentration of 10 μM.
After the incubation period, the reaction was rapidly terminated by vacuum filtration over a GF/C glass fiber filters that were incorporated in the microplates and that were presoaked in 0.5% polyethylenimine (Sigma-Aldrich, Munich, Germany), and washed 5 times with ice-cold TRIS-HCl buffer. 25 μL of scintillation fluid (MicroScint™, Perkin Elmer, Boston, USA) were added to each well, after which the microplates were counted in a liquid scintillation counter (Topcount, Packard).
For each candidate tracer, the inhibition constant (Ki) was calculated from the […] for the 5-HT1A receptor with non-linear regression curve fitting using the computer program Graphpad Prism® (version 3.02).

Data set [4] relates to α1-adrenoceptors. Particulars: cited from earlier work.
For data set [5], the target named is T2, 5-HT1A receptors (Homo sapiens, UniProt P08908).
T2 sequence (P08908 1-422): T1 sequence (P08908 1-422)
Particulars: cited from earlier work.

The conditions of data set [6]: amide hydrolysis; cited from earlier work.

SMILES strings stand for the structures.

Consider `COc1ccccc1N1CCN(CCN(C(=O)C2CCC(F)CC2)c2ccccn2)CC1` (stereo not drawn) [FCWAY], for which the “skull uptake of [^18F]” value in data set [1] is recorded as “twice the whole brain average”.
As to `Cc1ccc(S(=O)(=O)OC23C4C5C6C4C2C6C53)cc1` (stereo not drawn) [Cubyl], in data set [2], the “Relative rate of hydrolysis, calc.” value is on record as <10^−25 and the “Relative rate of hydrolysis, exp.” value was 10^−10.
Turning to `Cc1ccc(S(=O)(=O)OC23CC4CC(CC(C4)C2)C3)cc1` [1-Adamantyl], in data set [2], the “Relative rate of hydrolysis, calc.” value is given as 10^−4 and the “Relative rate of hydrolysis, exp.” value is given as 10^−3.
For `Cc1ccc(S(=O)(=O)OC23CCC(CC2)C3)cc1` [1-Norbornyl], in data set [2], the “Relative rate of hydrolysis, calc.” value is listed as 10^−14 and the “Relative rate of hydrolysis, exp.” value is reported as 10^−13.
Take `COc1ccccc1N1CCN(CCN(C(=O)C23C4C5C2C2C3C4C52I)c2ccccn2)CC1` (stereo not drawn) [iodocubyl-WAY]: in data set [3] ([^3H]8-OH-DPAT 1.1 nM, 120 min at 37° C., n=4, values only in FIG. 6), the “affinity towards the human 5-HT1A (Ki)” value is listed as “subnanomolar range”. The “rank of affinity among the bridgehead iodo WAY derivatives” value in data set [3] (iodobicyclooctyl, iodoadamantyl, iodonorbornyl and iodocubyl compared, FIG. 6) is recorded as “highest affinity”.
Consider `COc1ccccc1N1CCN(CCN(C(=O)c2ccc([123I])cc2)c2ccccn2)CC1` [MPPI], for which the “affinity for the α1-adrenoceptors” value in data set [4] was “quite high affinity”.
For the compound `COc1ccccc1N1CCN(CCN(C(=O)C2CC3CCC2CC3)c2ccccn2)CC1` (stereo not drawn) [CPC-222], the “affinity with regard to WAY-100635” value in data set [5] was “comparable affinity”. Also, in data set [6], the stability towards hydrolysis entry is given as “stable towards hydrolysis”.
Turning to `Cc1ccc(S(=O)(=O)OC23CCC(CC2)CC3)cc1` [1-Bicyclo[2.2.2]octyl], in data set [2], the “Relative rate of hydrolysis, calc.” value is reported as 10^−8 and the “Relative rate of hydrolysis, exp.” value is listed as 10^−7.
Regarding `COc1ccccc1N1CCN(CCN(C(=O)c2ccc(F)cc2)c2ccccn2)CC1` [MPPF], in data set [4], the “affinity for the α1-adrenoceptors” value is on record as “quite high affinity”.
